Patent publication US20150337013A1, “NOVEL ANTIBACTERIAL AGENTS FOR THE TREATMENT OF GRAM POSITIVE INFECTIONS” (priority 2008, published 2015)
Values joined by “and” are separate entries in the source; they are usually repeats but may differ in a detail not shown here. Identical values can stand only once. Like-named read-outs stand apart in the source and are kept apart here.

Tests used:
[1] = test system: Enterococcus faecalis EFS.312, Daptomycin resistant mutant (EFA); assay type: cell-based; conditions: MHBc with 50 mg/L calcium, 18-20 hours at 37° C.
Experimental: (§1) Compounds according to Formula I were tested for antimicrobial activity against a panel of organisms. Aerobic organisms, Staphylococcus aureus, Enterococcus faecalis and E. faecium, were tested by broth microdilution according to Clinical and Laboratory Standards Institute (CLSI) document M7-A7 (Clinical and Laboratory Standards Institute. Methods for Dilution Antimicrobial Susceptibility Tests for Bacteria that Grow Aerobically; Approved Standard—Seventh Edition. CLSI document M7-A7 [ISBN 1-56238-587-9]. Clinical and Laboratory Standards Institute, 940 West Valley Road, Suite 1400, Wayne, Pa. 19087-1898 USA, 2006) with modifications as described below. Mueller Hinton Broth (MHBc) was supplemented with 50 mg/L calcium (equivalent to human physiological levels of calcium) and assay plates were incubated 18-20 hours at 37° C. with aeration (200 rpm).
(§2) In all cases the final concentration of dimethyl sulfoxide incubated with cells is less than or equal to 1%. For minimum inhibitory concentration (MIC) calculations, 2-fold dilutions of compounds were added to wells of a microtiter plate containing 5×10^5 bacteria in a final volume of 100 μL of media. Following incubation, (18-20 hours at 37° C. with aeration at 200 rpm) growth was confirmed visually by placing plates over a viewing apparatus (stand with a mirror underneath) and then the optical density (OD600) was measured using a SpectraMax 340PC^384 plate reader. Growth was defined as turbidity that could be detected with the naked eye or achieving minimum OD600of 0.1. MIC values (in μg/mL) were defined as the lowest concentration producing no visible turbidity.

[2] = test system: Enterococcus faecium EFM.384, Daptomycin resistant mutant (14-A); assay type: cell-based; conditions: MHBc with 50 mg/L calcium, 18-20 hours at 37° C.
Experimental: as §1, §2

[3] = test system: Enterococcus faecalis EFS.201 (ATCC 49452); assay type: cell-based
Experimental: as §1, §2

[4] = test system: Enterococcus faecium EFM.14 (ATCC 6569); assay type: cell-based
Experimental: as §1, §2

[5] = test system: Staphylococcus aureus SAU.278, Daptomycin resistant mutant (D10); assay type: cell-based; conditions: MHBc with 50 mg/L calcium, 18-20 hours at 37° C.
Experimental: as §1, §2

[6] = test system: Staphylococcus aureus SAU.399 (ATCC 43300), Methicillin and Oxacillin Resistant; assay type: cell-based; conditions: ATCC 43300
Experimental: as §1, §2

[7] = MHBc with 50 mg/L calcium, 18-20 hours at 37° C.

Row | SMILES | Efs312 MIC [1] | Efm384 MIC [2] | Efs201 MIC [3, 7] | Efm14 MIC [4, 7] | Sa278 MIC [5] | C. diff MIC90 (Clostridium difficile) | Efm14 MIC ([4]; ATCC 6569) | Sa399 MIC [6] | Efs201 MIC ([3]; ATCC 49452)
1 | CCCCCCCC/C=C/CC(=O)N[C@@H](Cc1c[nH]c2ccccc12)C(=O)N[C@H](CC(N)=O)C(=O)N[C@@H](CC(=O)O)C(=O)N[C@@H]1C(=O)NCC(=O)N[C@@H](CCCN)C(=O)N[C@@H](CC(=O)O)C(=O)N[C@H](C)C(=O)N[C@@H](CC(=O)O)C(=O)NCC(=O)N[C@H](CO)C(=O)N[C@@H]([C@H](C)CC(=O)O)C(=O)N[C@@H](CC(=O)c2ccccc2N)C(=O)O[C@@H]1C [Compound 4] | 32 mg/L and 16 mg/L | 8 mg/L and 4 mg/L |  |  |  |  |  |  | 
2 | CCCCCCOc1ccc(-c2ccc(C(=O)N[C@@H](Cc3c[nH]c4ccccc34)C(=O)N[C@H](CC(N)=O)C(=O)N[C@@H](CC(=O)O)C(=O)N[C@@H]3C(=O)NCC(=O)N[C@@H](CCCN)C(=O)N[C@@H](CC(=O)O)C(=O)N[C@H](C)C(=O)N[C@@H](CC(=O)O)C(=O)NCC(=O)N[C@H](CO)C(=O)N[C@@H]([C@H](C)CC(=O)O)C(=O)N[C@@H](CC(=O)c4ccccc4N)C(=O)O[C@@H]3C)cc2)cc1 [Compound 62] | 2 mg/L and 4 mg/L | 1 mg/L | 0.25 mg/L | 0.5 mg/L | 0.5 mg/L | 2 mg/L |  |  | 
3 | CCCC1CCC(c2ccc(C(=O)N[C@@H](Cc3c[nH]c4ccccc34)C(=O)N[C@H](CC(N)=O)C(=O)N[C@@H](CC(=O)O)C(=O)N[C@@H]3C(=O)NCC(=O)N[C@@H](CCCN)C(=O)N[C@@H](CC(=O)O)C(=O)N[C@H](C)C(=O)N[C@@H](CC(=O)O)C(=O)NCC(=O)N[C@H](CO)C(=O)N[C@@H]([C@H](C)CC(=O)O)C(=O)N[C@@H](CC(=O)c4ccccc4N)C(=O)O[C@@H]3C)cc2)CC1 (single isomer, unassigned) [53 isomer I] | 2 mg/L | 2 mg/L and 1 mg/L |  |  | 0.25 mg/L and 0.5 mg/L | 1 mg/L | 0.25 mg/L | 0.125 mg/L | 
4 | CCCCCCSc1ccc(-c2csc(C(=O)N[C@@H](Cc3c[nH]c4ccccc34)C(=O)N[C@H](CC(N)=O)C(=O)N[C@@H](CC(=O)O)C(=O)N[C@@H]3C(=O)NCC(=O)N[C@@H](CCCN)C(=O)N[C@@H](CC(=O)O)C(=O)N[C@H](C)C(=O)N[C@@H](CC(=O)O)C(=O)NCC(=O)N[C@H](CO)C(=O)N[C@@H]([C@H](C)CC(=O)O)C(=O)N[C@@H](CC(=O)c4ccccc4N)C(=O)O[C@@H]3C)c2)cc1 [Compound 57] |  |  |  |  | 2 mg/L and 4 mg/L | 8 mg/L |  |  | 
5 | CC(C)c1ccc(CCCC(=O)N[C@@H](Cc2c[nH]c3ccccc23)C(=O)N[C@H](CC(N)=O)C(=O)N[C@@H](CC(=O)O)C(=O)N[C@@H]2C(=O)NCC(=O)N[C@@H](CCCN)C(=O)N[C@@H](CC(=O)O)C(=O)N[C@H](C)C(=O)N[C@@H](CC(=O)O)C(=O)NCC(=O)N[C@H](CO)C(=O)N[C@@H]([C@H](C)CC(=O)O)C(=O)N[C@@H](CC(=O)c3ccccc3N)C(=O)O[C@@H]2C)cc1 [Compound 30, N-[4-(4-isopropylphenyl)butanoyl]-L-tryptophyl-D-asparaginyl-L-α-aspartyl-L-threonylglycyl-L-ornithyl-L-α-aspartyl-D-alanyl-L-α-aspartylglycyl-D-seryl-(3R)-3-methyl-L-α-glutamyl-(αS)-α,2-diamino-γ-oxobenzenebutanoic acid (13→4)-lactone] | >32 mg/L | >32 mg/L |  |  | 32 mg/L | 8 mg/L |  |  | 8 mg/L
6 | CCCCCCc1ccc(C(=O)N[C@@H](Cc2c[nH]c3ccccc23)C(=O)N[C@H](CC(N)=O)C(=O)N[C@@H](CC(=O)O)C(=O)N[C@@H]2C(=O)NCC(=O)N[C@@H](CCCN)C(=O)N[C@@H](CC(=O)O)C(=O)N[C@H](C)C(=O)N[C@@H](CC(=O)O)C(=O)NCC(=O)N[C@H](CO)C(=O)N[C@@H]([C@H](C)CC(=O)O)C(=O)N[C@@H](CC(=O)c3ccccc3N)C(=O)O[C@@H]2C)cc1 [Compound 32] | >32 mg/L and 32 mg/L |  |  |  |  |  |  |  | 
7 | C[C@H](CC(=O)O)[C@@H]1NC(=O)[C@@H](CO)NC(=O)CNC(=O)[C@H](CC(=O)O)NC(=O)[C@@H](C)NC(=O)[C@H](CC(=O)O)NC(=O)[C@H](CCCN)NC(=O)CNC(=O)[C@@H](NC(=O)[C@H](CC(=O)O)NC(=O)[C@@H](CC(N)=O)NC(=O)[C@H](Cc2c[nH]c3ccccc23)NC(=O)CCCCCc2ccccc2)[C@@H](C)OC(=O)[C@H](CC(=O)c2ccccc2N)NC1=O [Compound 46] | >32 mg/L | >32 mg/L |  |  | >32 mg/L | 16 mg/L | >32 mg/L |  | >32 mg/L
8 | CCCCCCC1CCC(C(=O)N[C@@H](Cc2c[nH]c3ccccc23)C(=O)N[C@H](CC(N)=O)C(=O)N[C@@H](CC(=O)O)C(=O)N[C@@H]2C(=O)NCC(=O)N[C@@H](CCCN)C(=O)N[C@@H](CC(=O)O)C(=O)N[C@H](C)C(=O)N[C@@H](CC(=O)O)C(=O)NCC(=O)N[C@H](CO)C(=O)N[C@@H]([C@H](C)CC(=O)O)C(=O)N[C@@H](CC(=O)c3ccccc3N)C(=O)O[C@@H]2C)CC1 (some centres unmarked) [Compound 18] | 32 mg/L and 16 mg/L | 8 mg/L |  |  | 4 mg/L and 2 mg/L | 0.5 mg/L | 2 mg/L | 1 mg/L | 
9 | CCCCCCC(CCCC)C(=O)N[C@@H](Cc1c[nH]c2ccccc12)C(=O)N[C@H](CC(N)=O)C(=O)N[C@@H](CC(=O)O)C(=O)N[C@@H]1C(=O)NCC(=O)N[C@@H](CCCN)C(=O)N[C@@H](CC(=O)O)C(=O)N[C@H](C)C(=O)N[C@@H](CC(=O)O)C(=O)NCC(=O)N[C@H](CO)C(=O)N[C@@H]([C@H](C)CC(=O)O)C(=O)N[C@@H](CC(=O)c2ccccc2N)C(=O)O[C@@H]1C (some centres unmarked) [Compound 8] | >32 mg/L | 32 mg/L and >32 mg/L |  |  |  | 8 mg/L |  |  | 
10 | CCCCCCC1CCC(c2ccc(C(=O)N[C@@H](Cc3c[nH]c4ccccc34)C(=O)N[C@H](CC(N)=O)C(=O)N[C@@H](CC(=O)O)C(=O)N[C@@H]3C(=O)NCC(=O)N[C@@H](CCCN)C(=O)N[C@@H](CC(=O)O)C(=O)N[C@H](C)C(=O)N[C@@H](CC(=O)O)C(=O)NCC(=O)N[C@H](CO)C(=O)N[C@@H]([C@H](C)CC(=O)O)C(=O)N[C@@H](CC(=O)c4ccccc4N)C(=O)O[C@@H]3C)cc2)CC1 (single isomer, unassigned) [54 isomer I] |  |  |  |  |  | 4 mg/L |  |  | 
11 | C[C@H](CC(=O)O)[C@@H]1NC(=O)[C@@H](CO)NC(=O)CNC(=O)[C@H](CC(=O)O)NC(=O)[C@@H](C)NC(=O)[C@H](CC(=O)O)NC(=O)[C@H](CCCN)NC(=O)CNC(=O)[C@@H](NC(=O)[C@H](CC(=O)O)NC(=O)[C@@H](CC(N)=O)NC(=O)[C@H](Cc2c[nH]c3ccccc23)NC(=O)CCCCCCc2ccccc2)[C@@H](C)OC(=O)[C@H](CC(=O)c2ccccc2N)NC1=O [Compound 47] | >32 mg/L | >32 mg/L |  |  | >32 mg/L | 8 mg/L | >32 mg/L | 16 mg/L | 
12 | CCCCCCCC1CCC(C(=O)N[C@@H](Cc2c[nH]c3ccccc23)C(=O)N[C@H](CC(N)=O)C(=O)N[C@@H](CC(=O)O)C(=O)N[C@@H]2C(=O)NCC(=O)N[C@@H](CCCN)C(=O)N[C@@H](CC(=O)O)C(=O)N[C@H](C)C(=O)N[C@@H](CC(=O)O)C(=O)NCC(=O)N[C@H](CO)C(=O)N[C@@H]([C@H](C)CC(=O)O)C(=O)N[C@@H](CC(=O)c3ccccc3N)C(=O)O[C@@H]2C)CC1 (some centres unmarked) [Compound 19] |  |  |  |  |  | 0.250 mg/L |  |  | 
13 | CCCCCCOc1ccc(-c2csc(C(=O)N[C@@H](Cc3c[nH]c4ccccc34)C(=O)N[C@H](CC(N)=O)C(=O)N[C@@H](CC(=O)O)C(=O)N[C@@H]3C(=O)NCC(=O)N[C@@H](CCCN)C(=O)N[C@@H](CC(=O)O)C(=O)N[C@H](C)C(=O)N[C@@H](CC(=O)O)C(=O)NCC(=O)N[C@H](CO)C(=O)N[C@@H]([C@H](C)CC(=O)O)C(=O)N[C@@H](CC(=O)c4ccccc4N)C(=O)O[C@@H]3C)c2)cc1 [Compound 58, N-[4-(4-(hexyloxy)phenyl)thiophene-2-carbonyl]-L-tryptophyl-D-asparaginyl-L-α-aspartyl-L-threonylglycyl-L-ornithyl-L-α-aspartyl-D-alanyl-L-α-aspartylglycyl-D-seryl-(3R)-3-methyl-L-α-glutamyl-(αS)-α,2-diamino-γ-oxobenzenebutanoic acid (13→4)-lactone] |  |  |  |  | 0.5 mg/L and 1 mg/L | 4 mg/L |  |  | 
